Assay results published in patent US6420428B1, “Treatment and prevention of hepatic disorders” (The Regents of the University of California, priority 1996, dated 2002).

Experiments:
[1] = system: α-SMA-E box; assay: Mobility shift analysis of stellate cell nuclear extracts with α-SMA-E box oligonucleotide; assay type: in vivo, Sprague-Dawley rats; settings: CCl4-treated rats, gel shift
Procedure: (§2) At least four Sprague-Dawley (Charles River Breeding Labs) male rats (50 to 60 g) were assigned to each of four testing groups (designated as “CCl4”, “pentoxifylline”, “metabolite 5”, and “control”). Each rat received a single intraperitoneal injection of CCl4 in mineral oil (1:3; v/v) at a dose of 2 mL/kg body weight (CCl4, pentoxifylline, and metabolite 5 groups), or mineral oil only (control group). In addition, animals received intraperitoneal injections (100 μL) of saline (control and CCl4 groups), 200 mg/kg pentoxifylline (pentoxifylline group), or 200 mg/kg of the ester prodrug of pentoxifylline metabolite 5 (metabolite 5 group) at the following times with respect to mineral oil or CCl4 administration: −4 h, +8 h, +20 h, +32 h, and +44 h.
Briefly, cells were homogenized in 1 mL of 5% citric acid, 0.5% NP-40, 10 mM sodium fluoride and 10 mM sodium pyrophosphate with a glass Dounce homogenizer with a loose fitting pestle. The homogenized cells were placed above a cushion consisting of 30% sucrose and 1% citric acid. The nuclei were precipitated by a 4,000 g centrifugation at 4° C. for 30 min. and frozen at −70° C.
Gel retardation analysis of protein-DNA complexes were performed with an oligonucleotide of the putative DNA binding site. […]

[2] = system: NFkB; assay: Mobility shift analysis of stellate cell nuclear extracts with NFkB oligonucleotide; assay type: in vivo, Sprague-Dawley rats; settings: CCl4-treated rats, gel shift
Procedure: Gel retardation analysis of protein-DNA complexes were performed with an oligonucleotide of the putative DNA binding site.
For these analyses, equal amounts of nuclear protein were incubated with 1 ng of ^32P-labeled-NFkB (FIG. 3A) or ^32P-labeled-α-SMA-E box (FIG. 3B) oligonucleotides. The DNA-protein complexes were resolved by electrophoresis on a 6% nondenaturing polyacrylamide gel, the position of the bound DNA being indicated by arrows in FIGS. 3A-B. As described further below, some samples were incubated with specific antibodies or unlabeled oligonucleotide.
More specifically, FIG. 3A depicts DNA-protein complexes resolved by gel electrophoresis for representative samples of control (lane 2), CCl4 (lane 3), CCl4/pentoxifylline (lane 4); CCl4/metabolite 5 (lane 5); and CCl4+NFkB oligonucleotide (lane 6). On lane 1, the ^32P-labeled-NFkB probe was processed without nuclear extracts. […] The complex of ^32P-labeled NFkB oligonucleotides and nuclear extracts from activated stellate cells was competed by a NFkB cognate oligonucleotide (lane 6).

[3] = system: cAMP phosphodiesterase activity in hepatic stellate cells; assay: CREB phosphorylation at Ser 133 in stellate cell nuclear extracts (Western blot) as measure of cAMP phosphodiesterase inhibition in vivo; set-up: species or system Sprague-Dawley rats; settings: for expression of CREB-PSer133 in stellate cell nuclear extracts: CCl4-treated rats, Western blot
Procedure: Stellate cells were identified by their typical autofluorescence at 328 nm excitation wavelength, staining of lipid droplets by oil red, and immunohistochemistry with a monoclonal antibody against desmin. [Bedossa et al., Hepatology 19(5):1262-71 (1994)]. Detection of α-SMA, malondialdehyde-protein adducts, and CREB-PSer 133 in stellate cells extracts was performed by Western blot [Buck et al., EMBO J. 13:851-60 (1994)], and using antibodies directed against α-SMA (Vector Laboratories), malondialdehyde-lysine epitopes as described below [Trautwein et al., J. Clin. Invest. 93:2554-61 (1990)], or CREB-PSer 133 (Upstate Biotechnology).
Next, pentoxifylline and metabolite 5 were evaluated to determine whether they inhibit cAMP phosphodiesterase activity in hepatic stellate cells in vivo leading to an increase in protein kinase A-mediate phosphorylation. Because this signal transduction pathway triggers site-specific phosphorylation of the nuclear transcription factor CREB (cAMP responsive element binding protein) on Serine 133 [Yamamoto et al., Nature 334:494-98 (1988)], the induction of CREB phosphorylation at Ser 133 was analyzed in nuclear extracts from freshly isolated stellate cells using an antibody against the activated, phosphorylated form of CREB [Ginty et al., Science 260:238-42 (1993)].
FIG. 4B is a Western blot indicating the results of phosphorylation of CREB at Serine 133 in stellate cell nuclear extracts with control (lane 1), CCl4 (lane 2), CCl4/pentoxifylline (lane 3), and CCl4/metabolite 5 (lane 4) animals. […] Molecular markers (kilodaltons) are shown on the right margin of FIG. 4B. In addition to recognizing CREB, anti-CREB-PSer133 detected two other proteins. These are most likely members of the CREB-ATF family, ATF-1 and CREM, that have phosphoacceptor sequences similar to that of CREB-PSer133 [Ginty et al., Science 260:238-42 (1993)]. […] Neither CREB PSer133 nor phosphorylated members of the CREB-ATF family were detected in stellate cell nuclear extracts from CCl4-treated animals (lane 2).

[4] = system: malondialdehyde-protein adducts; assay: Hepatic lipid peroxidation (malondialdehyde-protein adducts, immunohistochemistry) in CCl4-treated rats; assay type: in vivo, Sprague-Dawley rats; settings: 48 h
Procedure: (§1) Forty-eight hours after the CCl4 or mineral oil injection (and 4 hours after the [^3H]thymidine injection), the rats were sacrificed. Thereafter, liver tissues were promptly removed, and a piece was fixed in 10% formaldehyde and embedded in paraffin for immunohistochemical staining.
Liver tissue was immunostained with antisera, specific for malondialdehyde-lysine adducts, raised against malondialdehyde-lysine adducts as described by Houglum et al., J Clin Invest 96:2269-76 (1995). Briefly, guinea pig LDL was isolated and modified with MDA, and the homologous modified LDL was used to immunize guinea pigs.
A phase-contrast microscope was utilized for hematoxylin/eosin staining and immunohistochemistry with alkaline phosphatase secondary antibodies (Vector Laboratories). Cytochromes utilized were alkaline phosphatase with fast green as counterstain (Sigma Chemical Co.). Negative control samples were processed in parallel under the same conditions, but with omission of the primary antibody.
In order to ascertain whether or not the prevention of activation observed with pentoxifylline resulted from interfering with the hepatocellular injury induced by CCl4, the degree of hepatocellular injury and lipid peroxidation were determined in those animals. […] As set forth above, protein adducts with malondialdehyde were detected using specific antibodies against malondialdehyde-lysine epitopes.

[5] = system: α-smooth muscle actin (α-SMA) expression in hepatic stellate cells; assay: Stellate cell activation: α-SMA expression by Western blot of freshly isolated stellate cells, CCl4-treated rats; assay type: in vivo, Sprague-Dawley rats; settings: 200 mg/kg i.p., 48 h, metabolite 5 given as ester prodrug
Procedure: as §2
Hepatic stellate cells were prepared from rats by in situ perfusion of the liver and single-step density Nycodenz® gradient (Accurate Chemical & Scientific Corp.). […] The cells were mixed with 9.5 mL Hank's buffer containing 3 g/L BSA and 8 mL of 28.7% (w/v) Nycodenz® in sodium-free Hank's buffer. The gradient was generated by placing 6 mL of the Hank's/BSA solution on top of the liver cell mixture in a 50 mL centrifugation tube. […]

[6] = after pentoxifylline; cited from earlier work
[7] = system: 3T3 NIH fibroblasts; assay: Fibroblast proliferation in culture; assay type: cell-based; settings: for effect on fibroblast growth induced by cytokines PDGF, EGF and FGF: data not shown
Procedure: The biological activities of pentoxifylline and metabolite 5 were further studied by measuring their effects on the stimulation of fibroblast proliferation. For this study, 3T3 NIH fibroblasts were cultured in the presence or absence of pentoxifylline or metabolite 5.

[8] = system: cyclic nucleotide phosphodiesterases; settings: cited from earlier work
[9] = system: dermal fibroblasts; settings: cited from earlier work
[10] = rat, in vivo
Procedure: At least four Sprague-Dawley (Charles River Breeding Labs) male rats (50 to 60 g) were assigned to each of four testing groups (designated as “CCl4”, “pentoxifylline”, “metabolite 5”, and “control”). Each rat received a single intraperitoneal injection of CCl4 in mineral oil (1:3; v/v) at a dose of 2 mL/kg body weight (CCl4, pentoxifylline, and metabolite 5 groups), or mineral oil only (control group). In addition, animals received intraperitoneal injections (100 μL) of saline (control and CCl4 groups), 200 mg/kg pentoxifylline (pentoxifylline group), or 200 mg/kg of the ester prodrug of pentoxifylline metabolite 5 (metabolite 5 group) at the following times with respect to mineral oil or CCl4 administration: −4 h, +8 h, +20 h, +32 h, and +44 h. The last injection (at +44h) included 30 μCi of 6-[^3H]thymidine (DuPont).

[11] = phosphorus-induced hepatocellular necrosis; cited from earlier work
[12] = system: hepatic stellate cells; assay: Stellate cell proliferation ([3H]thymidine incorporation into stellate cell DNA) in CCl4-treated rats; assay type: in vivo, Sprague-Dawley rats; settings: 200 mg/kg i.p. at -4, +8, +20, +32, +44 h, 48 h, metabolite 5 given as ester prodrug
Procedure: as §1
Hepatic stellate cells were prepared from rats by in situ perfusion of the liver and single-step density Nycodenz® gradient (Accurate Chemical & Scientific Corp.). [See Bedossa et al., Hepatology 19(5):1262-71 (1994); Brenner et al., Mol. Biol. Med. 7:105-15 (1990); Schäfer et al., Hepatology 7(4):680-87 (1987)]. The cells were mixed with 9.5 mL Hank's buffer containing 3 g/L BSA and 8 mL of 28.7% (w/v) Nycodenz® in sodium-free Hank's buffer. […]
Nuclei were prepared by a modification of the procedure described previously, e.g., by Buck et al., EMBO J. 13:851-60 (1994). […] DNA was isolated, extracted and counted for [^3H]thymidine incorporation.
Stellate cell proliferation was assessed by the incorporation of [^3H]thymidine. Stellate cell activation was evaluated by the expression of α-smooth muscle actin (α-SMA). […]
The specific activity of stellate cell DNA, an index of S-phase labeling, was determined from at least four rats in each experimental group after 4 hours of labeling with [^3H]thymidine at 1 PM. […]

SMILES | effect on complex between α-SMA-E box and stellate cell nuclear extracts [1] | effect on NFkB nuclear binding activity of stellate cells [2] | expression of CREB-PSer133 in stellate cell nuclear extracts [3] | phosphodiesterase inhibitory activity ([3]; rat, in vivo) | hepatic lipid peroxidation (malondialdehyde-protein adducts) versus CCl4 alone [4] | effect on stellate cell activation (α-SMA expression, Western blot) [5] | plasma concentration relative to pentoxifylline [6] | effect on fibroblast growth in logarithmic phase [7] | effect on fibroblast growth induced by cytokines PDGF, EGF and FGF [7] | phosphodiesterase inhibition [8] | collagen gene expression [9] | toxicity of the dose to the animals [10] | hepatic fibrosis [11] | effect on stellate cell proliferation (stellate cell DNA [3H]thymidine specific activity) [12]
Cn1cnc2c1c(=O)n(CCCC(=O)O)c(=O)n2C [metabolite 5, 1-(3-carboxypropyl)-3,7-dimethylxanthine] | prevented the formation of a complex | prevented NFkB nuclear activity induced by CCl4 | not detected | lacks phosphodiesterase inhibitory activity | did not affect | prevented the activation of stellate cells induced by CCl4 | five times greater | block fibroblast growth in logarithmic phase | blocked fibroblast growth |  |  |  |  | 
CC(=O)CCCCn1c(=O)c2c(ncn2C)n(C)c1=O [pentoxifylline, 1-(5-oxohexyl)-3,7-dimethylxanthine] | prevented the formation of a complex | prevented NFkB nuclear activity induced by CCl4 | markedly increased |  | comparable | prevented the activation of stellate cells induced by CCl4 |  | block fibroblast growth in logarithmic phase | blocked fibroblast growth | non-specific inhibitor of cyclic nucleotide phosphodiesterases | inhibits collagen gene expression | not toxic | prevented hepatic fibrosis | abolished the proliferation of stellate cells
